Columns and labels:
p38 MAP kinase = target: T1, p38 MAP kinase (Homo sapiens, UniProt Q16539); assay: In vitro p38 MAP kinase inhibition assay (transfer of γ-phosphate from γ-33P-ATP to Myelin Basic Protein); format: biochemical; conditions: phosphorylated recombinant p38 MAP kinase, MBP substrate
T1 construct: made in house; host or cells: E. coli (co-expressed with SEK-1 and MEKK)
Description: This example illustrates a p38 (MAP) kinase in vitro assay useful for evaluating the compounds of the present invention.
The p38 MAP kinase inhibitory activity of compounds of this invention in vitro was determined by measuring the transfer of the γ-phosphate from γ-^33P-ATP by p38 kinase to Myelin Basic Protein (MBP), using a minor modification of the method described in Ahn, et al., J. Biol. Chem. 266:4220-4227 (1991).
The phosphorylated form of the recombinant p38 MAP kinase was co-expressed with SEK-1 and MEKK in E. Coli (see, Khokhlatchev, et al., J. Biol. Chem. 272:11057-11062 (1997)) and then purified by affinity chromatography using a Nickel column.
The phosphorylated p38 MAP kinase was diluted in kinase buffer (20 mM 3-(N-morpholino)propanesulfonic acid, pH 7.2, 25 mM β-glycerol phosphate, 5 mM ethylene glycol-bis(beta-aminoethyl ether)-N,N,N′,N′-tetraacetic acid, 1 mM sodium ortho-vanadate, 1 mM dithiothreitol, 40 mM magnesium chloride). Test compound dissolved in DMSO or only DMSO (control) was added and the samples were incubated for 10 minutes at 30° C. The kinase reaction was initiated by the addition of a substrate cocktail containing MBP and γ-^33P-ATP. After incubating for an additional 20 minutes at […], the reaction was terminated by adding 0.75% phosphoric acid. The phosphorylated MBP was then separated from the residual γ-^33P-ATP using a phosphocellulose membrane (Millipore, Bedfrod, Mass.) and quantitated using a scintillation counter (Packard, Meriden, Conn.).

T1 sequence (Q16539 whole entry): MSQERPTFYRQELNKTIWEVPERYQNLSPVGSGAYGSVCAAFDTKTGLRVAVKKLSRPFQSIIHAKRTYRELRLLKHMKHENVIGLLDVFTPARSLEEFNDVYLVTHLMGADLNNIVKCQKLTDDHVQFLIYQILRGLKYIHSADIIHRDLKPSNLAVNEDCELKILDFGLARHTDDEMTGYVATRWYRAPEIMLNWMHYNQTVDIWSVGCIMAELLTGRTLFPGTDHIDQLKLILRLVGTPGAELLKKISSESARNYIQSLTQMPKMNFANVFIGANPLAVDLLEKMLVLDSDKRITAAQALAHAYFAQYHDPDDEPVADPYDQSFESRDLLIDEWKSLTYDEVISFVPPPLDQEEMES

| SMILES | IC50 (p38 MAP kinase) | melting point |
| --- | --- | --- |
| CCOC(=O)N1CCC(Nc2ncc3c(n2)NC(=O)N(c2ccccc2Cl)C3)CC1 [Compound 2-28, 3-(2-chlorophenyl)-7-(1-ethoxycarbonylpiperidin-4-ylamino)-3,4-dihydropyrimido[4,5-d]pyrimidin-2(1H)-one] | < 10 µM |  |
| CN1C(=O)N(c2ccccc2Cl)Cc2cnc(NCC(C)(C)CN)nc21 [Compound 3-1] | < 10 µM | 183 to 235 °C |
| Cc1ccccc1N1Cc2cnc(NCC(C)(C)CN)nc2N(C)C1=O [Compound 3-3] | < 10 µM |  |
| Cc1ccccc1N1Cc2cnc(NC(C)(C)CO)nc2N(C)C1=O [Compound 3-12] | < 10 µM |  |
| O=C1N(c2ccccc2Cl)Cc2cnc(N[C@H]3CC[C@H](O)CC3)nc2N1CC(F)(F)F [Compound 3-60, 3-(2-chlorophenyl)-7-(trans-4-hydroxycyclohexylamino)-1-(2,2,2-trifluoroethyl)-3,4-dihydropyrimido[4,5-d]pyrimidin-2(1H)-one] | < 10 µM | 130 to 133.5 °C |
